Patent US8987249B2, “Substituted 2-Aza-bicyclo[2.2.1]heptane-3-carboxylic acid (benzyl-cyano-methyl)-amides inhibitors of Cathepsin C” (Boehringer Ingelheim International GmbH, priority 2013, dated 2015)
pIC50: −log10 of the molar value.

Columns and labels:
[1] = molecular target: recombinant human Cathepsin K (Homo sapiens (Human), UniProt P43235); test: Inhibition of human Cathepsin K; assay type: biochemical; conditions: substrate Z-Gly-Pro-Arg-AMC
From the text: Inhibition of Human Cathepsin K
Materials: Microtiterplates (Optiplate-384 F were purchased from PerkinElmer (Prod. No. 6007270). The substrate Z-Gly-Pro-Arg-AMC was from Biomol (Prod.-No. P-142). L-Cysteine (Prod. No. 168149) was from Sigma. Sodium acetate was from Merck (Prod.-No. 6268.0250), EDTA was from Fluka (Prod.-No. 03680). The inhibitor E-64 was purchased from Sigma (Prod.-No. E3132). The recombinant human Cathepsin K proenzyme was purchased from Biomol (Prod. No. SE-367). All other materials were of highest grade commercially available.
The following buffers were used: Activation buffer: 32.5 mM sodium acetate, adjusted to pH 3.5 with HCl; Assay buffer: 150 mM sodium acetate, 4 mM EDTA, 20 mM L-Cysteine, adjusted to pH 5.5 with HCl,
To activate the proenzyme, 5 μl procathepsin K were mixed with 1 ul activation buffer, and incubated at room temperature for 30 min.
5 μL test compound (final concentration 0.1 nM to 100 μM) in aqua bidest (containing 4% DMSO, final DMSO concentration 1%) were mixed with 10 uL of Cathepsin K in assay buffer (final concentration 2 ng/μL) and incubated for 10 min. […] The plates were then incubated at room temperature for 60 min. Then, the reaction was stopped by adding 10 μL of E64 in assay buffer (final concentration 1 μM). The fluorescence in the wells was determined using a Molecular Devices SpectraMax M5 Fluorescence Reader (Ex 360 nm, Em 460 nm).
Each assay microtiter plate contains wells with vehicle controls (1% DMSO in bidest) as reference for non-inhibited enzyme activity (100% Ctl; high values) and wells with inhibitor (E64 in bidest+1% DMSO, final concentration […]) as controls for background fluorescence (0% Ctl; low values). The analysis of the data was performed by calculating the percentage of fluorescence in the presence of test compound in comparison to the fluorescence of the vehicle control after subtracting the background fluorescence: (RFU(sample)−RFU(background))*100/(RFU(control)−RFU(background))
Data from these calculations were used to generate IC50 values for inhibition of Cathepsin K, respectively.

[2] = Determination of metabolic stability with human liver microsomes; conditions: human, pooled human liver microsomes, pH 7.6
[3] = molecular target: recombinant human DPPI (Cathepsin C) (Homo sapiens (Human), UniProt P53634); test: Inhibition of human DPPI (Cathepsin C); assay type: biochemical; conditions: substrate Gly-Arg-AMC
Chain of recombinant human DPPI (Cathepsin C) (P53634 231-394): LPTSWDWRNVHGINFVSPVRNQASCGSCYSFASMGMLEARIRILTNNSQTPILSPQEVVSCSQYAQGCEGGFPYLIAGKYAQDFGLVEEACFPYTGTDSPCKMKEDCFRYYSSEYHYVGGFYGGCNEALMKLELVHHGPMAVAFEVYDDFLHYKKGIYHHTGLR
Chain of recombinant human DPPI (Cathepsin C) (P53634 395-463): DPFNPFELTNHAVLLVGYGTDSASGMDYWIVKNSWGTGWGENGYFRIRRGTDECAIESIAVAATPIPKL
Chain of recombinant human DPPI (Cathepsin C) (P53634 25-134): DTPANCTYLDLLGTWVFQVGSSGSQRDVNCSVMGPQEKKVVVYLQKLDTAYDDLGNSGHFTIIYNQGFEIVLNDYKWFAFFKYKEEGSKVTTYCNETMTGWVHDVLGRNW
Summary of the method: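 Fluorescence read after 30 min room-temperature turnover of 50 μM (final) substrate by recombinant human cathepsin C, pH 6.0 MES/NaCl/DTT/BSA buffer, quenched by Gly-Phe-DMK (1 μM final). Activity as percent of vehicle after background subtraction, used for IC50.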

Chain of recombinant human Cathepsin K (P43235 115-329): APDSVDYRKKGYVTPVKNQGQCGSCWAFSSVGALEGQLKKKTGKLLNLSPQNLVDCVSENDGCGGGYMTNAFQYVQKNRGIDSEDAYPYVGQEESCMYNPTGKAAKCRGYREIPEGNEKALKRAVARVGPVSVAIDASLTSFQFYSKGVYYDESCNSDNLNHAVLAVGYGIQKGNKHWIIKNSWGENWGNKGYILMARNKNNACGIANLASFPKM

pIC50 [1]	half-life at 1 μM [2] [h]	pIC50 [3]	Compound
6.10	> 2.17	9.00	N#C[C@H](Cc1cc2c(=O)[nH]c3c(F)c(F)ccc3c2cc1F)NC(=O)[C@H]1N[C@@H]2CC[C@H]1C2 [Example 324]
5.70	> 2.17	8.47	N#C[C@H](Cc1ccc(-c2cc(C(N)=O)co2)cc1F)NC(=O)[C@H]1N[C@@H]2CC[C@H]1C2 [Example 239]
5.43	> 2.17	8.22	CS(C)(=O)=Nc1cccc(-c2ccc(C[C@@H](C#N)NC(=O)[C@H]3N[C@@H]4CC[C@H]3C4)c(F)c2)c1 [Example 259]
5.35	> 2.17	8.08	CN1CCCN(c2ccc(C[C@@H](C#N)NC(=O)[C@H]3N[C@@H]4CC[C@H]3C4)c(F)c2)CC1 [Example 247]
5.21	> 2.17	8.20	N#C[C@H](Cc1ccc(N2CCN3CCC[C@H]3C2)cc1F)NC(=O)[C@H]1N[C@@H]2CC[C@H]1C2 [Example 270]
5.06	> 2.17		N#C[C@H](Cc1ccc(-n2cc(C(F)(F)F)cn2)cc1F)NC(=O)[C@H]1N[C@@H]2CC[C@H]1C2 [Example 285]
5.42	> 2.17	8.38	N#C[C@H](Cc1ccc(-c2cnn(C[C@@H]3CCCO3)c2)cc1F)NC(=O)[C@H]1N[C@@H]2CC[C@H]1C2 [Example 261]
< 4.52	1.53	7.87	N#CC(Cc1ccc2c(cnc3cc(F)ccc32)c1)NC(=O)[C@H]1N[C@@H]2CC[C@H]1C2 (stereo partly drawn) [Example 315, (1S,2S,4R)—N-[1-cyano-2-(3-fluorophenanthridin-8-yl)ethyl]-3-azabicyclo[2.2.1]heptane-2-carboxamide]
5.66	> 2.17	8.64	N#C[C@H](Cc1ccc(-c2ccc(C(=O)N3CCOCC3)o2)cc1F)NC(=O)[C@H]1N[C@@H]2CC[C@H]1C2 [Example 288]
5.44	> 2.17		N#C[C@H](Cc1ccc([C@@H]2CCN3CCOC[C@H]3C2)cc1F)NC(=O)[C@H]1N[C@@H]2CC[C@H]1C2 [Example 283]
5.82	> 2		N#C[C@H](Cc1ccc(N2CCN(C3CCOC3)CC2)cc1F)NC(=O)[C@H]1N[C@@H]2CC[C@H]1C2 (stereo partly drawn) [Example 331]

Second part, the compound before the results:

Compound	pIC50 [1]	half-life at 1 μM [2] [h]	pIC50 [3]
CCn1nccc1-c1ccc(C[C@@H](C#N)NC(=O)[C@H]2N[C@@H]3CC[C@H]2C3)c(F)c1 [Example 110]	5.01	> 2.17	7.54
N#CC(Cc1ccc(-c2cnn(C3CCOCC3)c2)cc1F)NC(=O)[C@H]1N[C@@H]2CC[C@H]1C2 (stereo partly drawn) [Example 116]	5.11	> 2.17	7.41
N#C[C@H](Cc1ccc(N2CCN(CCO)CC2)cc1F)NC(=O)[C@H]1N[C@@H]2CC[C@H]1C2 [Example 190]	5.43	> 2.17	7.96
N#CC(Cc1ccc(-c2ccc3c(c2)CCNC3=O)cc1F)NC(=O)[C@H]1N[C@@H]2CC[C@H]1C2 (stereo partly drawn) [Example 49]	5.19	> 2.17	8.14
CN1CCC(c2ccc(C[C@@H](C#N)NC(=O)[C@H]3N[C@@H]4CC[C@H]3C4)c(F)c2)CC1 [Example 117]	5.57	> 2.17	7.40
N#C[C@H](Cc1ccc(-c2cccc(S(=O)(=O)C3CC3)c2)cc1F)NC(=O)[C@H]1N[C@@H]2CC[C@H]1C2 [Example 153]	5.36	1.83	8.42
CS(=O)(=NC#N)c1cccc(-c2ccc(C[C@@H](C#N)NC(=O)[C@H]3N[C@@H]4CC[C@H]3C4)c(F)c2)c1 (stereo partly drawn) [Example 222]	5.77	> 2.17	8.66
CN1CCN(S(=O)(=O)c2ccc(-c3ccc(C[C@@H](C#N)NC(=O)[C@H]4N[C@@H]5CC[C@H]4C5)c(F)c3)cc2)CC1 [Example 155]	6.00	1.03	9.10
Cn1nc(C(F)(F)F)cc1-c1ccc(C[C@@H](C#N)NC(=O)[C@H]2N[C@@H]3CC[C@H]2C3)c(F)c1 [Example 100]	5.09	> 2.17	7.65
N#Cc1ccc(-c2ccc(C[C@@H](C#N)NC(=O)[C@H]3N[C@H]4C[C@@H]3[C@@H]3C[C@@H]34)c(F)c2)cc1F [Example 132]	4.91	> 2.17	7.72
CS(=O)(=O)c1ccc(-c2ccc(C[C@@H](C#N)NC(=O)[C@H]3N[C@@H]4CC[C@H]3C4)c(F)c2)cc1 [Example 16]	5.68	> 2.17	8.59
N#C[C@H](Cc1ccc(-c2cnn(CC3CCOCC3)c2)cc1F)NC(=O)[C@H]1N[C@@H]2CC[C@H]1C2 [Example 57]	5.64	1.58	8.08
N#C[C@H](Cc1ccc(-c2ccc3c(c2)C(=O)NC3)cc1F)NC(=O)[C@H]1N[C@@H]2CC[C@H]1C2 [Example 95]	5.44	> 2.17	7.72
CS(=O)(=O)c1ccc(-c2ccc(C[C@@H](C#N)NC(=O)[C@H]3N[C@@H]4CC[C@H]3C4)c(F)c2)c(F)c1 [Example 86]	5.17	> 2.17	7.85
COCc1cn(-c2ccc(C[C@@H](C#N)NC(=O)[C@H]3N[C@@H]4CC[C@H]3C4)c(F)c2)nn1 [Example 111]	5.37	> 2.17	7.50
CS(=O)(=O)N1CCN(c2ccc(C[C@@H](C#N)NC(=O)[C@H]3N[C@@H]4CC[C@H]3C4)c(F)c2)CC1 [Example 91]	5.60	> 2.17	7.77
N#C[C@H](Cc1ccc(-c2csc(C(N)=O)c2)cc1F)NC(=O)[C@H]1N[C@@H]2CC[C@H]1C2 [Example 157]	5.13	> 2.17	9.05
N#C[C@H](Cc1ccc(-n2cc(CCN3CCOCC3)nn2)cc1F)NC(=O)[C@H]1N[C@@H]2CC[C@H]1C2 [Example 99]	5.54	> 2.17	7.68
N#C[C@H](Cc1ccc(-c2ccc(S(N)(=O)=O)cc2)cc1F)NC(=O)[C@H]1N[C@H]2C[C@@H]1[C@@H]1C[C@@H]12 [Example 136]	5.21	> 2.17	7.99
N#C[C@H](Cc1ccc(-c2ccc(C(=O)NC3CCOCC3)cc2)cc1F)NC(=O)[C@H]1N[C@@H]2CC[C@H]1C2 [Example 200]	5.48	> 2.17	7.78
N#C[C@H](Cc1ccc(N2CCC(N3CCOCC3)CC2)cc1F)NC(=O)[C@H]1N[C@@H]2CC[C@H]1C2 [Example 193]	5.66	> 2.17	7.91
COCCn1cc(-c2ccc(C[C@@H](C#N)NC(=O)[C@H]3N[C@@H]4CC[C@H]3C4)c(F)c2)cn1 [Example 44]	5.40	> 2.17	
CN1Cc2cc(-c3ccc(C[C@@H](C#N)NC(=O)[C@H]4N[C@@H]5CC[C@H]4C5)c(F)c3)ccc2S1(=O)=O [Example 169]	5.28	> 2.17	
COCCn1cc(-c2ccc(CC(C#N)NC(=O)[C@H]3N[C@@H]4CC[C@H]3C4)c(F)c2)cn1 (stereo partly drawn) [Example 97]	5.10	> 2.17	
